Tests used:
[1] = test system: pgp-9 transcriptional GFP fusion gene; test: Transcriptional GFP fusion gene induction: pgp-9; type: in vivo, C. elegans; conditions: n = 20
Description: (§1) G418 (GoldBio) or hygromycin (GoldBio) was diluted in M9 to the desired concentration and added onto preseeded OP50 E. coli bacteria containing NGM plates. The plates were dried uncovered in the hood for at least 1 hour before seeding the worms. For the drug experiments, synchronized L1-stage animals were dropped onto the drug containing plates and scored later. For drug resistance assays synchronized L1 larval stage animals of the appropriate genotype were fed with either control RNAi or with RNAi clones targeting bile acid biosynthetic pathways until they reach day two of adulthood. Subsequently, the RNAi-treated animals were egg-prepped to obtain synchronized L1 larvae. ˜100 L1 larvae were added to the plates containing G418. 100 nM of Δ^4-Dafachronic Acid or (25S)-Δ^7-Dafachronic Acid from Cayman Chemical were used.
(§2) Nematodes were mounted onto agar pads and images were taken using a Zeiss AXIO Imager Z1 microscope fitted with a Zeiss AxioCam HRm camera and Axiovision 4.6 (Zeiss) software. Fluorescent images were converted to 16-bit images, thresholded and quantified using ImageJ. Student's t test was used determine statistical significance. […]

[2] = test system: ugt-8 transcriptional GFP fusion gene; test: Transcriptional GFP fusion gene induction: ugt-8; type: in vivo, C. elegans; conditions: n = 20
Description: as §1, §2

[3] = test system: pmp-4 transcriptional GFP fusion gene; test: Transcriptional GFP fusion gene induction: pmp-4; type: in vivo, C. elegans; conditions: n = 20
[4] = test system: dhs-19 transcriptional GFP fusion gene; test: Transcriptional GFP fusion gene induction: dhs-19; type: in vivo, C. elegans; conditions: n = 20
Description: as §1, §2

[5] = test system: mrp-2 transcriptional GFP fusion gene; test: Transcriptional GFP fusion gene induction: mrp-2; type: in vivo, C. elegans; conditions: n = 20
Description: as §1, §2

pgp-5::gfp [6] = test: pgp-5::gfp induction in animals without germline translation mutation (toxin, RNAi, bile acids, lipid extracts); type: in vivo, C. elegans; conditions: pgp-5 transcriptional GFP fusion gene; n = 20
Description: as §1
Nematodes were mounted onto agar pads and images were taken using a Zeiss AXIO Imager Z1 microscope fitted with a Zeiss AxioCam HRm camera and Axiovision 4.6 (Zeiss) software. Fluorescent images were converted to 16-bit images, thresholded and quantified using ImageJ. […]
RNAi bacteria expressing the dsRNA corresponding to each worm gene were grown in LB media with 25 μg/ml carbenicillin overnight and seeded onto RNAi agar plates containing 1 mM IPTG. […] In the primary screen, the plates were screened visually for changes in GFP fluorescence and worm developmental defects. […]

[7] = test system: dhs-9 transcriptional GFP fusion gene; test: Transcriptional GFP fusion gene induction: dhs-9; type: in vivo, C. elegans; conditions: n = 20
Description: as §1, §2

[8] = test system: pgp-3 transcriptional GFP fusion gene; test: Transcriptional GFP fusion gene induction: pgp-3; type: in vivo, C. elegans; conditions: n = 20
Description: as §1, §2

[9] = test system: ugt-58 transcriptional GFP fusion gene; test: Transcriptional GFP fusion gene induction: ugt-58; type: in vivo, C. elegans; conditions: n = 20
Description: as §1, §2

[10] = test system: ugt-61 transcriptional GFP fusion gene; test: Transcriptional GFP fusion gene induction: ugt-61; type: in vivo, C. elegans; conditions: n = 20
Description: as §1, §2

[11] = test system: ugt-22 transcriptional GFP fusion gene; test: Transcriptional GFP fusion gene induction: ugt-22; type: in vivo, C. elegans; conditions: n = 20
Description: as §1, §2

C. elegans [12] = test: Drug resistance assay (G418 or hygromycin) after RNAi; type: in vivo; conditions: control RNAi treated wildtype animals; 0.2 mg/ml G418
Description: as §1

[13] = test system: pgp-6 transcriptional GFP fusion gene; test: Transcriptional GFP fusion gene induction: pgp-6; type: in vivo, C. elegans; conditions: n = 20
Description: as §1, §2

[14] = test system: pgp-4 transcriptional GFP fusion gene; test: Transcriptional GFP fusion gene induction: pgp-4; type: in vivo, C. elegans; conditions: n = 20
[15] = test system: abch-1 transcriptional GFP fusion gene; test: Transcriptional GFP fusion gene induction: abch-1; type: in vivo, C. elegans; conditions: n = 20
Description: as §1, §2

[16] = test system: cyp-37A1 transcriptional GFP fusion gene; type: in vivo, C. elegans; conditions: n = 20
Description: as §1
(§3) Nematodes were mounted onto agar pads and images were taken using a Zeiss AXIO Imager Z1 microscope fitted with a Zeiss AxioCam HRm camera and Axiovision 4.6 (Zeiss) software. Fluorescent images were converted to 16-bit images, thresholded and quantified using ImageJ. Student's t test was used determine statistical significance.
(§4) Inactivation of C. elegans translation components by feeding the animals E. coli expressing specific dsRNAs targeting translation factor mRNAs induces the expression of xenobiotic detoxification genes, bacterial pathogen response genes, and aversion behavior2-4 (FIG. 1A-C; Table 1, 2 and 3). Toxins, such as the eukaryotic translation inhibitors G418 produced by the bacteria Micromonospora rhodorangea5 or hygromycin, produced by the soil bacteria Streptomyces hygroscopicus6 also induce these responses.
(§5) Detoxification responses in animals include, cytochrome P450's (CYPs), UDP-glucuronosyltransferases (UGTs), glutathione S-transferases (GSTs), and p-glycoprotein transporters (PGPs) (FIGS. 1A & 1C; FIG. 6 A-B; Table 1, 2 and 3). We chose a pgp-5::gfp fusion gene for assays of xenobiotic detoxification induction in response to G418 or hygromycin or ribosomal assaults via RNAi (FIGS. 1A & C; FIG. 6 A-B; Table 1, 2 and 3) because of the robust response of this reporter gene and validation of this gene induction from microarray gene expression analysis in response to translational inhibition by toxins or RNAi4.

[17] = test system: cyp-14A3 transcriptional GFP fusion gene; type: in vivo, C. elegans; conditions: n = 20
Description: as §1, §3, §4, §5

[18] = test system: cyp-13a7 transcriptional GFP fusion gene; type: in vivo, C. elegans; conditions: n = 20
Description: as §1, §3, §4, §5

[19] = test system: cyp-31a3 transcriptional GFP fusion gene; type: in vivo, C. elegans; conditions: n = 20
Description: as §1, §3, §4, §5

[20] = test system: cyp-25a2 transcriptional GFP fusion gene; type: in vivo, C. elegans; conditions: n = 20
Description: as §1, §3, §4, §5

[21] = test system: cyp-35B1 transcriptional GFP fusion gene; type: in vivo, C. elegans; conditions: n = 20
Description: as §1, §3, §4, §5

[22] = test system: cyp-34A9 transcriptional GFP fusion gene; type: in vivo, C. elegans; conditions: n = 20
Description: as §1, §3, §4, §5

[23] = test system: haf-7 transcriptional GFP fusion gene; test: Transcriptional GFP fusion gene induction: haf-7; type: in vivo, C. elegans; conditions: n = 20
Description: as §1, §2

pgp-5::gfp [24] = test: pgp-5::gfp induction in germline translation-defective eft-3(q145);pgp-5::gfp strain (RNAi, bile acid rescue, microbes); type: in vivo, C. elegans; conditions: bile acids at 100 uM
Description: Secondary screens were similarly done on the eft-3(q145):pgp-5::gfp strain.
To explore the types of lipids that the dhs-28. daf-22 pathway generates to regulate the induction of pgp-5::gfp expression in translation-defective animals, we tested whether defects in CAs-28 or daf-22-mediated lipid/bile acid biosynthesis could be rescued for pgp-5::gfp induction by addition of purified mammalian bile acids (FIG. 9B). […] These bile acids preparations are 95% pure.

C. elegans [25] = test: Effect of microbes on C. elegans growth; type: in vivo; conditions: C. elegans grown on the microbe
Description: 16S ribosomal sequence was amplified using specific primers and sequenced to identify the microbes. BHI media as well as plates was used for culturing and testing the effect of Enterococcus faecalis and E. faecium on worms. For Saccharomyces boulardi, YPD media was used for growing the yeast and a concentrated culture was added to SK media. For Lactobacillus spp, Lactobacilli broth was used for growing and then a concentrated culture was added to SK media. SK media was used for all the other microbes.
Many of the bacterial strains allowed normal growth of C. elegans, but some caused developmental arrest, perhaps due to toxins or virulence factors that disrupt essential C. elegans processes.

Compound: CN[C@@H]1[C@@H](O)[C@@H](O[C@@H]2[C@@H](O)[C@H](O[C@H]3O[C@H]([C@@H](C)O)[C@@H](O)[C@H](O)[C@H]3N)[C@@H](N)C[C@H]2N)OC[C@]1(C)O [G418]
- % Animals with gfp induction [1]: 100 (n = 20) %
- % Animals with gfp induction [2]: 0 (n = 20) %
- % Animals with gfp induction [3]: 65 (n = 20) %
- % Animals with gfp induction [4]: 0 (n = 20) %
- % Animals with gfp induction [5]: 80 (n = 20) %
- % Animals with gfp induction (pgp-5::gfp [6]): 100 (n = 20) %
- % Animals with gfp induction [7]: 0 (n = 20) %
- % Animals with gfp induction [8]: 0 (n = 20) %
- % Animals with gfp induction [9]: 0 (n = 20) %
- % Animals with gfp induction [10]: 0 (n = 20) %
- % Animals with gfp induction [11]: 0 (n = 20) %
- animals that grew to adulthood (C. elegans [12]): > 40%
- % Animals with gfp induction [13]: 100 (n = 20) %
- % Animals with gfp induction [14]: 0 (n = 20) %
- % Animals with gfp induction [15]: 0 (n = 20) %
- % Animals with gfp induction [16]: 0 (n = 20) %
- % Animals with gfp induction [17]: 0 (n = 20) %
- % Animals with gfp induction [18]: 0 (n = 20) %
- % Animals with gfp induction [19]: 80 (n = 20) %
- % Animals with gfp induction [20]: 0 (n = 20) %
- % Animals with gfp induction [21]: 0 (n = 20) %
- % Animals with gfp induction [22]: 0 (n = 20) %
- % Animals with gfp induction [23]: 0 (n = 20) %

Compound: C[C@H](CCC(=O)O)[C@H]1CC[C@H]2[C@@H]3[C@H](O)C[C@@H]4C[C@H](O)CC[C@]4(C)[C@H]3CC[C@]12C [chenodeoxycholic acid]
- rescue of the defect in pgp-5::gfp induction caused by daf-22 or dhs-28 gene inactivations (pgp-5::gfp [24]): rescued the defect in induction of pgp-5::gfp

Compound: CC(CCC(=O)NCC(=O)O)C1CCC2C3C(O)CC4CC(O)CCC4(C)C3CCC12C (stereo not drawn) [glycochenodeoxycholic acid]
- rescue of the defect in pgp-5::gfp induction caused by daf-22 or dhs-28 gene inactivations (pgp-5::gfp [24]): rescued the defect in induction of pgp-5::gfp

Compound: Lactobacillus plantarum
- % Animals that reach adulthood (C. elegans [25]): 0%
- developmental outcome on the microbe (arrest stage, slow growth, normal) (C. elegans [25]): slow growth
